From patent US5232684A, “Labelled resiniferatoxin, compositions thereof, and methods for using the same” (priority 1990, dated 1993)

Key:
[1] = tested on: rat brain preoptic region; assay: [^3H]RTX binding to rat brain preoptic region
[2] = biological target: T1, capsaicin receptor (chicken DRG) (Gallus gallus, UniProt Q8QFN9); assay: [^3H]RTX binding to chicken DRG membranes
T1 construct: homotetramer
T1 sequence (Q8QFN9 1-843): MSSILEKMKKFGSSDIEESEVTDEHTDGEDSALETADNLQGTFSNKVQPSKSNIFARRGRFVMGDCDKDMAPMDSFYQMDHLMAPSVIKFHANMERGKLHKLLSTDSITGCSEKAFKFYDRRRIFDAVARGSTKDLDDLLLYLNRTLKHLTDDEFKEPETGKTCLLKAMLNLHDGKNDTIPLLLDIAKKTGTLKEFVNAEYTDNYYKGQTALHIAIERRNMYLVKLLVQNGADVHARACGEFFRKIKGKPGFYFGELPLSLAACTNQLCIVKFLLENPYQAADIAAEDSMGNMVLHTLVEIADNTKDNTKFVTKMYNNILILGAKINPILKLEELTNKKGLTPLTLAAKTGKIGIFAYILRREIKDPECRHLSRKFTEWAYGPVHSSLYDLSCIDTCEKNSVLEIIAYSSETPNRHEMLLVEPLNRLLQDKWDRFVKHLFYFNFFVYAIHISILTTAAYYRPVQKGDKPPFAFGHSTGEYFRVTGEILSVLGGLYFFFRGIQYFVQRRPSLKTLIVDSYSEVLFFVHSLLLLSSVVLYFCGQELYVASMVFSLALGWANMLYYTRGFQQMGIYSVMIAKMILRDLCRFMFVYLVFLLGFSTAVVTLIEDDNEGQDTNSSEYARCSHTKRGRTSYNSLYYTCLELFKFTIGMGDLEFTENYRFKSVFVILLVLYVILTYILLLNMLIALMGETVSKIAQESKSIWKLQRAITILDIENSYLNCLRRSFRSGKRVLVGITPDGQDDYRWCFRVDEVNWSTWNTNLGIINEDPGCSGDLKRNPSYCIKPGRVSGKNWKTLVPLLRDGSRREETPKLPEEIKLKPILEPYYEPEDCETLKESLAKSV

[3] = tested on: capsaicin receptor (cow DRG); assay: [^3H]RTX binding to cow DRG membranes; settings: DRG from cows
[4] = tested on: capsaicin receptor (porcine DRG subcellular fractions); assay type: binding, pig
Experimental: Subcellular fractions are prepared by a modification of the method of Bastiaensen et al. (Bastiaensen, E., Miserez, B. and De Potter, W., Subcellular fractionation of bovine ganglion stellatum: co-storage of noradrenaline, Met-enkephalin and neuropeptide Y in large `dense-cored` vesicles, Brain Res., 442 (1988) 124-130. ) Briefly: DRG are dissected free from capsule, cut into small pieces with scissors, and then homogenized with a teflon pestle (20 strokes) in ice-cold 0.25 M sucrose/ 20 mM Tris-Cl (pH 7.4) buffer. The homogenate is filtered over surgical gauze; it is then centrifuged for 10 min at 2000 gmax, giving a pellet P1, and again at 10 000 gmax for 15 min giving a pellet P2. The P1 and P2 pellets are saved as nuclear and mitochondrial fractions for binding studies. […]
The binding assays are carried out in a volume of 250 ul, containing assay buffer (same as the disrupting buffer but omitting DTT and EGTA and including 0.75 mM CaCl2), 26-30 ug of membrane protein and 0.25 mg/ml bovine serum albumin. […] An aliquot of 50 ul of the mixture is removed to determine total radioactivity. The filters are washed with 100 ml of ice-cold 20 mM Tris-Cl, pH 7 4, containing 0.1 mg/ml bovine serum albumin, and the bound radioactivity is determined by scintillation counting. Non-specific binding is determined in the presence of 100-1000 nM non-radioactive RTX. […]

C=C(C)[C@]12C[C@@H](C)[C@@]34O[C@](Cc5ccccc5)(O[C@@H]1[C@@H]3C=C(COC(=O)Cc1ccc(O)c(OC)c1)C[C@]1(O)C(=O)C(C)=C[C@@H]41)O2 [[^3 H]RTX, [^3 H]resiniferatoxin]
detection of [^3H]RTX binding [1]: very difficult
binding in DRG from chickens [2]: not detected
specific binding [3]: Specific binding is observed
specific [^3H]RTX binding, microsomal/plasma membrane fraction over mitochondrial fraction ([4]; fixed 300 pM [^3H]RTX, preliminary): 5 fold
specific [^3H]RTX binding in the nuclear pellet ([4]; nuclear pellet): No specific [^3 H]RTX binding
